Data taken from ChEMBL document CHEMBL1201862, “PubChem BioAssay data set” (2004).
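Step 1: Grow cells in 96-well plates. Step 2: Expose to compound for 48 hours at 5 concentrations. Step 3: Interpolate endpoints linearly; if unreached, use highest concentration. GI50 marks 50% less growth.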 Calls of active or inactive are those of the source. No stated cut-off is given here; in the data, active = GI50 up to about 1.1 µM and inactive = higher.

What was measured:
Test in all cases: NCI anticancer screen, dose series, 48 h
ACHN = system: ACHN
DU-145 = system: DU-145
EKVX = system: EKVX
HOP-62 = system: HOP-62
KM12 = system: KM12
NCI-H23 = system: NCI-H23
OVCAR-3 = system: OVCAR-3
OVCAR-4 = system: OVCAR-4
RXF 393 = system: RXF 393
SF-539 = system: SF-539
SK-MEL-5 = system: SK-MEL-5
SK-OV-3 = system: SK-OV-3
SN12C = system: SN12C
SNB-19 = system: SNB-19
SR = system: SR
T47D = system: T47D
U-251 = system: U-251
UACC-62 = system: UACC-62
Malme-3M = system: Malme-3M

Measured: GI50

CCc1nc(N)nc(N)c1-c1ccc(Cl)c(/N=C/N(C)C)c1
inactive: ACHN 38.8 µM | DU-145 81.1 µM | EKVX > 87.3 µM | HOP-62 63.7 µM | KM12 61.7 µM | NCI-H23 28.6 µM | OVCAR-3 65.6 µM | OVCAR-4 72.3 µM | RXF 393 > 89.3 µM | SF-539 45.3 µM | SK-MEL-5 29.9 µM | SK-OV-3 > 100 µM | SN12C 91.4 µM | SNB-19 58.9 µM | SR 31.1 µM | T47D 77.3 µM | U-251 54.6 µM | UACC-62 35.8 µM

CCOC(=O)C(SCCO)C(C(=O)OCC)n1cnc2c(=O)[nH]c(NC(C)=O)nc21 (stereo not drawn)
inactive: ACHN > 100 µM | DU-145 > 100 µM | EKVX > 100 µM | HOP-62 > 100 µM | KM12 > 100 µM | Malme-3M > 100 µM | NCI-H23 > 100 µM | OVCAR-3 > 100 µM | OVCAR-4 > 100 µM | SF-539 > 100 µM | SK-MEL-5 > 100 µM | SK-OV-3 > 100 µM | SN12C > 100 µM | SNB-19 > 100 µM | SR 21.4 µM | T47D > 100 µM | U-251 > 100 µM | UACC-62 > 100 µM

Oc1c(-c2ccccc2)sc2ccccc12
inactive: ACHN 24.7 µM | DU-145 18.8 µM | EKVX 24.9 µM | HOP-62 16.7 µM | KM12 25.8 µM | Malme-3M 22.1 µM | NCI-H23 20.4 µM | OVCAR-3 10.2 µM | OVCAR-4 37.9 µM | RXF 393 14.7 µM | SF-539 44.5 µM | SK-MEL-5 16.7 µM | SNB-19 34.3 µM | SR 7.5 µM | T47D 11 µM | U-251 29.4 µM | UACC-62 49.3 µM

COc1ccc2c(c1)C1c3ccccc3CCN1CCC2 (stereo not drawn)
inactive: ACHN 64.9 µM | DU-145 > 100 µM | EKVX > 100 µM | HOP-62 58.6 µM | KM12 29.4 µM | NCI-H23 47.9 µM | OVCAR-3 73.8 µM | OVCAR-4 > 100 µM | RXF 393 47.6 µM | SF-539 47.3 µM | SK-MEL-5 29.2 µM | SK-OV-3 36.6 µM | SN12C 71.1 µM | SNB-19 55.2 µM | SR 32.2 µM | T47D > 100 µM | U-251 32.6 µM | UACC-62 23.7 µM

O=C(CC(C(=O)c1cccs1)c1ccsc1)c1ccco1 (stereo not drawn)
inactive: ACHN 32.3 µM | DU-145 31 µM | EKVX 24.8 µM | HOP-62 64.1 µM | KM12 22.7 µM | NCI-H23 19.5 µM | OVCAR-3 54.8 µM | RXF 393 20.5 µM | SF-539 27.5 µM | SK-MEL-5 27.7 µM | SK-OV-3 41.3 µM | SN12C 35.5 µM | SR 41.8 µM | T47D 24.7 µM | U-251 21.4 µM | UACC-62 22.8 µM

c1ccc2c(c1)CCN(C1=NCCO1)C2
inactive: ACHN > 10 µM | DU-145 > 10 µM | EKVX > 10 µM | HOP-62 > 10 µM | KM12 > 10 µM | Malme-3M > 10 µM | NCI-H23 > 10 µM | OVCAR-3 > 10 µM | OVCAR-4 > 10 µM | RXF 393 > 10 µM | SF-539 > 10 µM | SK-MEL-5 > 10 µM | SK-OV-3 > 10 µM | SN12C > 10 µM | SNB-19 > 10 µM | T47D > 10 µM | U-251 > 10 µM | UACC-62 > 10 µM

Cn1c2c3ccccc3nc-2c(O)c2ccccc21 [HYDROXYCRYPTOLEPINE]
inactive: ACHN 48.6 µM | DU-145 3.46 µM | EKVX > 100 µM | HOP-62 > 100 µM | KM12 > 100 µM | Malme-3M > 100 µM | NCI-H23 > 100 µM | OVCAR-3 > 100 µM | OVCAR-4 54.1 µM | RXF 393 > 100 µM | SF-539 50.5 µM | SK-MEL-5 41.2 µM | SK-OV-3 > 100 µM | SN12C 48.2 µM | SNB-19 > 100 µM | T47D > 100 µM | U-251 > 100 µM | UACC-62 > 100 µM

CC1C[C@]2(C)C(=O)Nc3ccccc3[C@@H]2Nc2ccccc21 (stereo partly drawn)
inactive: ACHN 27.1 µM | DU-145 27.7 µM | EKVX 19.9 µM | HOP-62 23.7 µM | KM12 17.9 µM | Malme-3M 23.3 µM | NCI-H23 19.5 µM | OVCAR-3 17.8 µM | OVCAR-4 44.3 µM | RXF 393 24.8 µM | SF-539 23.4 µM | SK-MEL-5 16.5 µM | SN12C 19.5 µM | SNB-19 21.8 µM | SR 16.2 µM | T47D 42.5 µM | UACC-62 15.1 µM

CCN(CC)N1C(=O)[N-][N+](CC)(CC)C1=O
inactive: ACHN > 100 µM | DU-145 > 100 µM | EKVX > 100 µM | HOP-62 > 100 µM | KM12 > 100 µM | Malme-3M > 100 µM | NCI-H23 > 100 µM | OVCAR-3 > 100 µM | OVCAR-4 > 100 µM | SF-539 > 100 µM | SK-MEL-5 > 100 µM | SK-OV-3 > 100 µM | SN12C > 100 µM | SNB-19 > 100 µM | SR > 100 µM | T47D > 100 µM | U-251 > 100 µM | UACC-62 > 100 µM

CN(C)CCOc1ccc(-c2c(Oc3ccccc3)c(=O)oc3ccccc23)cc1
inactive: ACHN 11.9 µM | DU-145 13.8 µM | EKVX 13.9 µM | KM12 21.4 µM | Malme-3M 12.2 µM | NCI-H23 14.1 µM | OVCAR-3 12.4 µM | OVCAR-4 27.2 µM | RXF 393 3.08 µM | SF-539 14.1 µM | SK-MEL-5 3.78 µM | SN12C 14 µM | SNB-19 8.02 µM | SR 2.83 µM | T47D 12.7 µM | U-251 4.86 µM | UACC-62 13.3 µM

COC(=O)C1(Cc2ccc3c(c2)CCC3)Cc2cc3c(cc2C1)CCC3
inactive: ACHN 38.3 µM | DU-145 71.4 µM | EKVX 45.2 µM | HOP-62 > 100 µM | KM12 33.2 µM | NCI-H23 27.3 µM | OVCAR-3 45.6 µM | OVCAR-4 32.2 µM | RXF 393 23.9 µM | SF-539 > 100 µM | SK-MEL-5 27 µM | SK-OV-3 > 100 µM | SN12C 50.5 µM | SNB-19 68.1 µM | SR 78.7 µM | T47D 21.4 µM | U-251 37.4 µM | UACC-62 71.3 µM
